Results from PMC9221442, “Design, Synthesis and Characterization of [G10a]-Temporin SHa Dendrimers as Dual Inhibitors of Cancer and Pathogenic Microbes” (Biomolecules, 2022).
Where a SMILES comes first, the peptide text is derived from it. Bridges are numbered along the chain shown (N, C = ends). Roman numbers before positions name the chains, in order. [ ]: non-standard residue; d: D form.

Key:
[1] = test system: breast cancer cells MCF-7; format: cell-based, human; conditions: 48 h
Experimental: (§1) The antiproliferative effect of the peptides was determined by using human cells, as previously described. Human cancer cells used in this experiment were ovarian cancer cells A2780 (obtained from ECACC), breast cancer cells MCF-7 (obtained from ATCC), liver cancer cells HepG2 (obtained from ATCC), lung cancer cells A549 (obtained from ATCC), pancreatic cancer cells MiaPaCa (obtained from ATCC), prostate cancer cells PC-3 (obtained from ATCC), and skin cancer cells MNT-1 (generous gift from the National Institute of Health (NIH). Normal human cells used were human lung fibroblasts IMR-90 (obtained from ATCC). All cells were cultured in DMEM which was supplemented with 10% fetal bovine serum (FBS), 1% L-glutamine, and 1% antibiotics (all from Invitrogen) at 37 °C in 5% CO2 incubator. For cytotoxicity assay, cells were maintained in 25 cm^2 flasks. Cells were separated from flasks using trypsin-EDTA solution (from Thermofisher) and counted using Malassez chamber and diluted in culture medium before seeding into 96-well cell-culture plates (Greiner bio-one, Paris, France) at approximately 3000 cells/well. Cells were then treated with increasing concentration of peptides diluted in culture medium (1:2 serial dilution, from 100 µM to 0 µM). After 48 h, medium was aspirated and number of viable cells was colorimetrically determined using resazurin-based assay following manufacturer’s instructions. The fluorescence intensity was measured using microplate reader (Biotek, Santa Clara, CA, USA, Synergy Mx) with an excitation wavelength of 530 nm and an emission wavelength of 590 nm. The fluorescence values were normalized by the controls (untreated cells) and expressed as percent of proliferation. The IC50 values of peptides (i.e., the concentrations causing 50% inhibition of cell proliferation) were determined using GraphPad® Prism 7 software.

liver cancer cells HepG2 = format: cell-based, human; conditions: 48 h
Experimental: as §1

lung cancer cells A549 = format: cell-based, human; conditions: 48 h
Experimental: as §1

[2] = test system: ovarian cancer cells A2780; format: cell-based, human; conditions: 48 h
Experimental: as §1

[3] = test system: pancreatic cancer cells MiaPaCa; format: cell-based, human; conditions: 48 h
Experimental: as §1

[4] = test system: prostate cancer cells PC-3; format: cell-based, human; conditions: 48 h
Experimental: as §1

skin cancer cells MNT-1 = format: cell-based, human; conditions: 48 h
Experimental: as §1

human cancer cells = format: cell-based; conditions: for IC50: 48 h
Experimental: as §1

[5] = test system: human lung fibroblasts IMR-90; format: cell-based; conditions: 48 h
Experimental: as §1

human red blood cells = test: Hemolysis assay; format: cell-based; conditions: for hemolysis: 100 µM; for estimated HC50 (concentration causing 50% of hemolysis): red cells of human, 1 h
Experimental: The ability of dendrimers and peptides to cause hemolysis was evaluated using human whole red blood cells. Briefly, fresh human erythrocytes (obtained from Divbio Science Europe, NL) were washed 3 times by centrifugation at 800× g for 5 min with sterile phosphate buffer saline (PBS, pH 7.4). The washed erythrocytes were resuspended in complete culture media (DMEM supplemented with 10% FBS) to a final concentration of 8%. Human erythrocytes were then added into sterile 96-well microplates (150 µL per well) and were exposed to increasing concentrations of peptides or dendrimers. After 1 h incubation at 37 °C, plates were centrifuged at 800× g for 5 min. Then, 100 µL of supernatant were carefully transferred to a new 96-well microplate and absorbance was measured at 450 nm using microplate reader. Triton-X100 at 0.1% (v/v) was used as positive control giving 100% hemolysis. The HC50 values of peptides and dendrimers (i.e., the concentration of compound causing 50% of hemolysis) were calculated using GraphPad® Prism 7 software.

[6] = Stability study at different temperatures (absorbance spectrum); conditions: room temperature, 35 °C, 40 °C, 50 °C and 60 °C
Experimental: (§2) The stability of dendrimers at different pH values and temperatures was also determined. For this, a 510 model digital pH meter (Oakton Eutech) with working electrode of glass material and a Ag/AgCl as reference electrode was used for the pH record. Dilute solutions of HCl and NaOH were added to adjust the pH of the solution from 2 to 12. Similarly, stability of monomer [G10a]-SHa and its three dendrimers was checked by heating the peptide dendrimers on different temperature ranges, i.e., room temperature, 35 °C, 40 °C, 50 °C and 60 °C.

[7] = Stability study at different pH; conditions: pH 2 to pH 14
Experimental: as §2, with “Dilute solutions of HCl and NaOH were added to adjust the pH of the solution from 2 to 12.” left out

[8] = test system: Acinetobacter baumannii (DSM 30007); format: cell-based; conditions: A. baumannii (DSM 30007), 18–24 h, aerobic
Experimental: (§3) Experiments were performed in triplicate (n = 3).

[9] = test system: Escherichia coli (ATCC 8739); format: cell-based; conditions: E. coli (ATCC 8739), 18–24 h, aerobic
Experimental: as §3

[10] = test system: Helicobacter pylori (ATCC 43504); format: cell-based; conditions: H. pylori (ATCC 43504), 18–24 h, micro-aerobic
Experimental: as §3

[11] = test system: Staphylococcus aureus (ATCC 6538); format: cell-based; conditions: S. aureus (ATCC 6538), 18–24 h, aerobic
Experimental: as §3

[12] = Dynamic light scattering (zetasizer); format: physicochemical
Experimental: The dendrimeric solutions of peptides were transferred into transparent cuvette with care to remove bubble formation. The sample was then transferred to the cell holder and study was performed at 90° scattering angle at room temperature. The standard viscosity and refractive index were kept constant and kept at 1.0, 1.33 and 80.4 mPa, respectively.

Compound	IC50 [1]	IC50 (liver cancer cells HepG2)	IC50 (lung cancer cells A549)	IC50 [2]	IC50 [3]	IC50 [4]	IC50 (skin cancer cells MNT-1)	IC50 (human cancer cells)	IC50 [5]	hemolytic activity (in words) (human red blood cells)	hemolysis (human red blood cells)	estimated HC50 (concentration causing 50% of hemolysis) (human red blood cells)	stability at different temperatures [6]	stability at different pH [7]	further results
CC[C@H](C)[C@H](NC(=O)CNC(=O)[C@H](CO)NC(=O)[C@H](CC(C)C)NC(=O)[C@@H](N)Cc1ccccc1)C(=O)N[C@H](C(=O)NCC(=O)N[C@@H](CCSC)C(=O)N[C@@H](CC(C)C)C(=O)N[C@H](C)C(=O)N[C@@H](CCCCN)C(=O)N[C@@H](CC(C)C)C(=O)N[C@@H](Cc1ccccc1)C(=O)NCCCC[C@H](NC(=O)[C@H](Cc1ccccc1)NC(=O)[C@H](CC(C)C)NC(=O)[C@H](CCCCN)NC(=O)[C@@H](C)NC(=O)[C@H](CC(C)C)NC(=O)[C@H](CCSC)NC(=O)CNC(=O)[C@@H](NC(=O)[C@@H](NC(=O)CNC(=O)[C@H](CO)NC(=O)[C@H](CC(C)C)NC(=O)[C@@H](N)Cc1ccccc1)[C@@H](C)CC)C(C)C)C(N)=O)C(C)C [[G10a]2-SHa] (HELM PEPTIDE1{F.L.S.G.I.V.G.M.L.[dA].K.L.F.K.[am]}|PEPTIDE2{F.L.S.G.I.V.G.M.L.[dA].K.L.F}$PEPTIDE1,PEPTIDE2,14:R3-13:R2$$$V2.0)	5.69 ± 1.46 µM	14.3 ± 1.37 µM	3.79 ± 1.61 µM	4.42 ± 0.06 µM	8.71 ± 0.35 µM	6.31 ± 0.66 µM	4.72 ± 0.36 µM	6.85 ± 3.66 µM	22.3 ± 0.4 µM	high hemolytic activity	complete hemolysis	11.55 ± 0.38 µM	considerable stability up to 60 °C	significantly stable at pH values up to 10 and unstable at high pH values of 12 and 14	–
I: H-FLSGIVGML[dA]KLFKK-NH2 / II: H-FLSGIVGML[dA]KLF / III: H-FLSGIVGML[dA]KLF (amide I:14-III:C, I:15-II:C) [[G10a]3-SHa]	3.77 ± 0.12 µM	5.49 ± 0.37 µM	3.74 ± 3.46 µM	2.31 ± 0.08 µM	6.94 ± 0.27 µM	1.84 ± 0.17 µM	2.24 ± 0.05 µM	3.76 ± 1.87 µM	13.9 ± 0.42 µM	high hemolytic activity	complete hemolysis	10.46 ± 0.36 µM	considerable stability up to 60 °C	significantly stable at pH values up to 10 and unstable at high pH values of 12 and 14	minimal inhibitory concentration (MIC) [8]: 3.12 µM; minimal inhibitory concentration (MIC) [9]: 25 µM; minimal inhibitory concentration (MIC) [10]: 25 µM; minimal inhibitory concentration (MIC) [11]: 6.25 µM; times more active than [G10a]-SHa at inhibiting multiplying cancer cells (human cancer cells; from mean IC50 on human cancer cells): 4.8 times; Pdi Values (polydispersity index) ([12]; DLS): 0.462; average hydrodynamic diameter ([12]; DLS): about 46.13 nm; Z-Average ([12]; DLS, room temperature): 46.13 nm·days; Zeta Potential ([12]; zetasizer): −71.2 mV
